Measured values published in US20190233884A1 (University of Southern California, priority 2016, published 2019).

Tested on: patients with refractory metastatic colorectal cancer (mCRC)
Assay: PFS, OS and disease control in the training (evaluation) cohort of refractory mCRC patients receiving TAS-102 (n=52, Japan), by baseline characteristics, SNP genotype and toxicity
Assay type: in vivo, human
Settings: for OS HR (95% CI)‡ / PFS HR (95% CI) ‡: multivariable; for OS HR (95% CI)† / PFS HR (95% CI) †: univariate
Method: All patients underwent the treatment in salvage-line setting. […]
Genomic DNA was extracted from peripheral whole blood in patients of all cohorts using the QIAmp Kit (Qiagen, Valencia, Calif., USA) according to the manufacturer's protocol (www.qiagen.com). The candidate SNPs were genotyped using PCR-based direct DNA sequence analysis by ABI 3100A Capillary Genetic Analyzer and Sequencing Scanner v1.0 (Applied Biosystems). Amplification of extracted DNA was carried out using both forward and reverse primers for each gene polymorphism as shown in Table 1. […] The investigators analyzing SNPs were blinded to the clinical data of the study patients.
The primary endpoint in this study was progression-free survival (PFS), and the secondary endpoints were overall survival (OS) and disease control rate (DCR). PFS was calculated from the date of starting treatment to the first observation of disease progression or death from any cause. If a patient had no disease progression or death, PFS was censored at the date of last follow up. OS was calculated from the date of starting treatment until the date of death from any cause or the date of the last follow-up, at which point OS was censored. The disease control rate (DCR) was defined as the proportion of patients who achieved a stable disease (SD) or […] according to RECISTv1.1. Chi-square test was used to examine the difference in baseline patient characteristics among the three cohorts. Allelic distribution of all SNPs by ethnicity for deviation from Hardy-Weinberg equilibrium and the allelic frequencies of SNPs were tested using the Chi-square tests with one degree of freedom. The associations between candidate SNPs and disease control, and toxicities were examined using contingency tables and Fisher's exact test. The associations of SNPs with PFS and OS were analysed using Kaplan-Meier curves and the log-rank test. Because the true mode of inheritance of candidate SNPs was not established yet, a codominant or dominant genetic model if appropriate was considered.
All patients underwent the treatment in salvage-line setting. […] In all patients, adverse events were graded according to the Common Terminology Criteria for Adverse Events, version 4.0. […]
Genomic DNA was extracted from peripheral whole blood in patients of all cohorts using the QIAmp Kit (Qiagen, Valencia, Calif., USA) according to the manufacturer's protocol (www.qiagen.com). The candidate SNPs were tested using PCR-based direct DNA sequence analysis by ABI 3100A Capillary Genetic Analyzer and Sequencing Scanner v1.0 (Applied Biosystems). […] The investigators analyzing SNPs were blinded to the clinical data.
The primary endpoint in this study was progression-free survival (PFS), and the secondary endpoints were overall survival (OS) and disease control rate (DCR).

Trifluridine/tipiracil [TAS-102]
Disease Control Rate PD: 10 (71%) | Disease Control Rate SD: 4 (29%) | OS median, months (95% CI) (ATR rs2227928 A/A): 5.7 (2.7, 12.4) months | PFS median, months (95% CI) (ATR rs2227928 A/A): 2.1 (1.6, 3.4) months | OS median, months (95% CI) (ATR rs2227928 A/G): 8.1 (4.9, 15.6) months | PFS median, months (95% CI) (ATR rs2227928 A/G): 2.9 (1.6, 3.4) months | OS HR (95% CI)‡ (ATR rs2227928 A/G vs A/A): 0.68 (0.26, 1.74) | PFS HR (95% CI) ‡ (ATR rs2227928 A/G vs A/A): 0.82 (0.41, 1.63) | OS HR (95% CI)† (ATR rs2227928 A/G vs A/A): 0.71 (0.28, 1.78) | PFS HR (95% CI) † (ATR rs2227928 A/G vs A/A): 0.75 (0.38, 1.51) | OS median, months (95% CI) (ATR rs2227928 Any G): 8.3 (6.3, 15.6) months | PFS median, months (95% CI) (ATR rs2227928 Any G): 3.0 (2.1, 3.7) months | OS HR (95% CI)‡ (ATR rs2227928 Any G vs A/A): 0.50 (0.20, 1.27) | PFS HR (95% CI) ‡ (ATR rs2227928 Any G vs A/A): 0.67 (0.35, 1.29) | OS HR (95% CI)† (ATR rs2227928 Any G vs A/A): 0.57 (0.24, 1.40) | PFS HR (95% CI) † (ATR rs2227928 Any G vs A/A): 0.64 (0.33, 1.23) | PFS median, months (95% CI) (ATR rs2227928 G/G): 3.7 (2.1, 6.6) months | OS HR (95% CI)‡ (ATR rs2227928 G/G vs A/A): 0.18 (0.04, 0.93) | PFS HR (95% CI) ‡ (ATR rs2227928 G/G vs A/A): 0.43 (0.17, 1.08) | OS HR (95% CI)† (ATR rs2227928 G/G vs A/A): 0.28 (0.06, 1.31) | PFS HR (95% CI) † (ATR rs2227928 G/G vs A/A): 0.46 (0.19, 1.10) | OS median, months (95% CI) (BRCA1 rs16941 Any C): 8.3 (5.3, 14.8+) months | PFS median, months (95% CI) (BRCA1 rs16941 Any C): 3.0 (2.0, 4.2) months | OS HR (95% CI)‡ (BRCA1 rs16941 Any C vs T/T): 1.14 (0.46, 2.82) | PFS HR (95% CI) ‡ (BRCA1 rs16941 Any C vs T/T): 1.04 (0.54, 2.00) | OS HR (95% CI)† (BRCA1 rs16941 Any C vs T/T): 0.90 (0.38, 2.15) | PFS HR (95% CI) † (BRCA1 rs16941 Any C vs T/T): 0.87 (0.47, 1.64) | PFS median, months (95% CI) (BRCA1 rs16941 C/C): 2.7 (2.0, 4.2) months | OS HR (95% CI)‡ (BRCA1 rs16941 C/C vs T/T): 0.37 (0.05, 3.07) | PFS HR (95% CI) ‡ (BRCA1 rs16941 C/C vs T/T): 1.66 (0.58, 4.74) | OS HR (95% CI)† (BRCA1 rs16941 C/C vs T/T): 0.28 (0.04, 2.20) | PFS HR (95% CI) † (BRCA1 rs16941 C/C vs T/T): 1.06 (0.38, 2.90) | OS median, months (95% CI) (BRCA1 rs16941 T/C): 8.1 (3.4, 14.8+) months | PFS median, months (95% CI) (BRCA1 rs16941 T/C): 3.2 (1.8, 4.6) months | OS HR (95% CI)‡ (BRCA1 rs16941 T/C vs T/T): 1.36 (0.55, 3.40) | PFS HR (95% CI) ‡ (BRCA1 rs16941 T/C vs T/T): 0.94 (0.47, 1.88) | OS HR (95% CI)† (BRCA1 rs16941 T/C vs T/T): 1.13 (0.47, 2.74) | PFS HR (95% CI) † (BRCA1 rs16941 T/C vs T/T): 0.84 (0.43, 1.62) | OS median, months (95% CI) (BRCA1 rs16941 T/T): 6.3 (4.4, 15.6+) months | PFS median, months (95% CI) (BRCA1 rs799917 A/A): 2.7 (2.0, 4.2) months | OS HR (95% CI)‡ (BRCA1 rs799917 A/A vs G/G): 0.37 (0.05, 3.07) | PFS HR (95% CI) ‡ (BRCA1 rs799917 A/A vs G/G): 1.66 (0.58, 4.74) | OS HR (95% CI)† (BRCA1 rs799917 A/A vs G/G): 0.28 (0.04, 2.20) | PFS HR (95% CI) † (BRCA1 rs799917 A/A vs G/G): 1.06 (0.38, 2.90) | OS median, months (95% CI) (BRCA1 rs799917 Any A): 8.3 (5.3, 14.8+) months | PFS median, months (95% CI) (BRCA1 rs799917 Any A): 3.0 (2.0, 4.2) months | OS HR (95% CI)‡ (BRCA1 rs799917 Any A vs G/G): 1.14 (0.46, 2.82) | PFS HR (95% CI) ‡ (BRCA1 rs799917 Any A vs G/G): 1.04 (0.54, 2.00) | OS HR (95% CI)† (BRCA1 rs799917 Any A vs G/G): 0.90 (0.38, 2.15) | PFS HR (95% CI) † (BRCA1 rs799917 Any A vs G/G): 0.87 (0.47, 1.64) | OS median, months (95% CI) (BRCA1 rs799917 G/A): 8.1 (3.4, 14.8+) months | PFS median, months (95% CI) (BRCA1 rs799917 G/A): 3.2 (1.8, 4.6) months | OS HR (95% CI)‡ (BRCA1 rs799917 G/A vs G/G): 1.36 (0.55, 3.40) | PFS HR (95% CI) ‡ (BRCA1 rs799917 G/A vs G/G): 0.94 (0.47, 1.88) | OS HR (95% CI)† (BRCA1 rs799917 G/A vs G/G): 1.13 (0.47, 2.74) | PFS HR (95% CI) † (BRCA1 rs799917 G/A vs G/G): 0.84 (0.43, 1.62) | OS median, months (95% CI) (BRCA1 rs799917 G/G): 6.3 (4.4, 15.6+) months | OS median, months (95% CI) (BRCA2 rs144848 A/A): 8.3 (5.4, 12.4) months | PFS median, months (95% CI) (BRCA2 rs144848 A/A): 2.7 (2.0, 3.4) months | PFS median, months (95% CI) (BRCA2 rs144848 A/C): 3.5 (1.5, 4.9) months | OS HR (95% CI)‡ (BRCA2 rs144848 A/C vs A/A): 0.97 (0.34, 2.76) | PFS HR (95% CI) ‡ (BRCA2 rs144848 A/C vs A/A): 0.82 (0.39, 1.72) | OS HR (95% CI)† (BRCA2 rs144848 A/C vs A/A): 0.91 (0.33, 2.57) | PFS HR (95% CI) † (BRCA2 rs144848 A/C vs A/A): 0.76 (0.37, 1.56) | OS median, months (95% CI) (BRCA2 rs144848 Any C): 8.1 (2.8, 15.6+) months | PFS median, months (95% CI) (BRCA2 rs144848 Any C): 3.3 (1.6, 4.6) months | OS HR (95% CI)‡ (BRCA2 rs144848 Any C vs A/A): 1.14 (0.46, 2.79) | PFS HR (95% CI) ‡ (BRCA2 rs144848 Any C vs A/A): 0.92 (0.48, 1.78) | OS HR (95% CI)† (BRCA2 rs144848 Any C vs A/A): 1.07 (0.44, 2.58) | PFS HR (95% CI) † (BRCA2 rs144848 Any C vs A/A): 0.82 (0.43, 1.54) | OS median, months (95% CI) (BRCA2 rs144848 C/C): 8.1 (2.7, 8.1+) months | PFS median, months (95% CI) (BRCA2 rs144848 C/C): 2.7 (0.9, 6.0+) months | OS HR (95% CI)‡ (BRCA2 rs144848 C/C vs A/A): 1.62 (0.44, 6.02) | PFS HR (95% CI) ‡ (BRCA2 rs144848 C/C vs A/A): 1.28 (0.47, 3.50) | OS HR (95% CI)† (BRCA2 rs144848 C/C vs A/A): 1.48 (0.41, 5.34) | PFS HR (95% CI) † (BRCA2 rs144848 C/C vs A/A): 0.99 (0.38, 2.59) | OS median, months (95% CI) (CHEK2 rs22236142 Any C): 8.3 (5.4, 15.6+) months | PFS median, months (95% CI) (CHEK2 rs22236142 Any C): 2.6 (2.1, 3.4) months | OS HR (95% CI)‡ (CHEK2 rs22236142 Any C vs G/G): 0.66 (0.26, 1.65) | PFS HR (95% CI) ‡ (CHEK2 rs22236142 Any C vs G/G): 1.15 (0.59, 2.22) | OS HR (95% CI)† (CHEK2 rs22236142 Any C vs G/G): 0.84 (0.35, 2.00) | PFS HR (95% CI) † (CHEK2 rs22236142 Any C vs G/G): 1.33 (0.70, 2.50) | OS median, months (95% CI) (CHEK2 rs22236142 C/C): 7.5 (3.3, 15.6+) months | PFS median, months (95% CI) (CHEK2 rs22236142 C/C): 2.7 (1.6, 4.4) months | OS HR (95% CI)‡ (CHEK2 rs22236142 C/C vs G/G): 0.88 (0.28, 2.77) | PFS HR (95% CI) ‡ (CHEK2 rs22236142 C/C vs G/G): 1.18 (0.50, 2.78) | OS HR (95% CI)† (CHEK2 rs22236142 C/C vs G/G): 0.93 (0.31, 2.81) | PFS HR (95% CI) † (CHEK2 rs22236142 C/C vs G/G): 1.15 (0.49, 2.74) | OS median, months (95% CI) (CHEK2 rs22236142 G/C): 8.3 (4.9, 12.4+) months | PFS median, months (95% CI) (CHEK2 rs22236142 G/C): 2.5 (1.8, 3.5) months
